Literature values in patent US20080003608A1, “Highly Specific Polyclonal Antibodies of Individual Core Histone and Uses Thereof” (priority 2004, published 2008).

Target: T1, p300 (Homo sapiens, UniProt Q09472)
T1 construct: lane 3 curcumin (75 μM) treated cells, lane 4, curcumin (100 μM) treated cells; endogenous in cells
Settings: reference (2)

T1 sequence (Q09472 whole entry, species assumed): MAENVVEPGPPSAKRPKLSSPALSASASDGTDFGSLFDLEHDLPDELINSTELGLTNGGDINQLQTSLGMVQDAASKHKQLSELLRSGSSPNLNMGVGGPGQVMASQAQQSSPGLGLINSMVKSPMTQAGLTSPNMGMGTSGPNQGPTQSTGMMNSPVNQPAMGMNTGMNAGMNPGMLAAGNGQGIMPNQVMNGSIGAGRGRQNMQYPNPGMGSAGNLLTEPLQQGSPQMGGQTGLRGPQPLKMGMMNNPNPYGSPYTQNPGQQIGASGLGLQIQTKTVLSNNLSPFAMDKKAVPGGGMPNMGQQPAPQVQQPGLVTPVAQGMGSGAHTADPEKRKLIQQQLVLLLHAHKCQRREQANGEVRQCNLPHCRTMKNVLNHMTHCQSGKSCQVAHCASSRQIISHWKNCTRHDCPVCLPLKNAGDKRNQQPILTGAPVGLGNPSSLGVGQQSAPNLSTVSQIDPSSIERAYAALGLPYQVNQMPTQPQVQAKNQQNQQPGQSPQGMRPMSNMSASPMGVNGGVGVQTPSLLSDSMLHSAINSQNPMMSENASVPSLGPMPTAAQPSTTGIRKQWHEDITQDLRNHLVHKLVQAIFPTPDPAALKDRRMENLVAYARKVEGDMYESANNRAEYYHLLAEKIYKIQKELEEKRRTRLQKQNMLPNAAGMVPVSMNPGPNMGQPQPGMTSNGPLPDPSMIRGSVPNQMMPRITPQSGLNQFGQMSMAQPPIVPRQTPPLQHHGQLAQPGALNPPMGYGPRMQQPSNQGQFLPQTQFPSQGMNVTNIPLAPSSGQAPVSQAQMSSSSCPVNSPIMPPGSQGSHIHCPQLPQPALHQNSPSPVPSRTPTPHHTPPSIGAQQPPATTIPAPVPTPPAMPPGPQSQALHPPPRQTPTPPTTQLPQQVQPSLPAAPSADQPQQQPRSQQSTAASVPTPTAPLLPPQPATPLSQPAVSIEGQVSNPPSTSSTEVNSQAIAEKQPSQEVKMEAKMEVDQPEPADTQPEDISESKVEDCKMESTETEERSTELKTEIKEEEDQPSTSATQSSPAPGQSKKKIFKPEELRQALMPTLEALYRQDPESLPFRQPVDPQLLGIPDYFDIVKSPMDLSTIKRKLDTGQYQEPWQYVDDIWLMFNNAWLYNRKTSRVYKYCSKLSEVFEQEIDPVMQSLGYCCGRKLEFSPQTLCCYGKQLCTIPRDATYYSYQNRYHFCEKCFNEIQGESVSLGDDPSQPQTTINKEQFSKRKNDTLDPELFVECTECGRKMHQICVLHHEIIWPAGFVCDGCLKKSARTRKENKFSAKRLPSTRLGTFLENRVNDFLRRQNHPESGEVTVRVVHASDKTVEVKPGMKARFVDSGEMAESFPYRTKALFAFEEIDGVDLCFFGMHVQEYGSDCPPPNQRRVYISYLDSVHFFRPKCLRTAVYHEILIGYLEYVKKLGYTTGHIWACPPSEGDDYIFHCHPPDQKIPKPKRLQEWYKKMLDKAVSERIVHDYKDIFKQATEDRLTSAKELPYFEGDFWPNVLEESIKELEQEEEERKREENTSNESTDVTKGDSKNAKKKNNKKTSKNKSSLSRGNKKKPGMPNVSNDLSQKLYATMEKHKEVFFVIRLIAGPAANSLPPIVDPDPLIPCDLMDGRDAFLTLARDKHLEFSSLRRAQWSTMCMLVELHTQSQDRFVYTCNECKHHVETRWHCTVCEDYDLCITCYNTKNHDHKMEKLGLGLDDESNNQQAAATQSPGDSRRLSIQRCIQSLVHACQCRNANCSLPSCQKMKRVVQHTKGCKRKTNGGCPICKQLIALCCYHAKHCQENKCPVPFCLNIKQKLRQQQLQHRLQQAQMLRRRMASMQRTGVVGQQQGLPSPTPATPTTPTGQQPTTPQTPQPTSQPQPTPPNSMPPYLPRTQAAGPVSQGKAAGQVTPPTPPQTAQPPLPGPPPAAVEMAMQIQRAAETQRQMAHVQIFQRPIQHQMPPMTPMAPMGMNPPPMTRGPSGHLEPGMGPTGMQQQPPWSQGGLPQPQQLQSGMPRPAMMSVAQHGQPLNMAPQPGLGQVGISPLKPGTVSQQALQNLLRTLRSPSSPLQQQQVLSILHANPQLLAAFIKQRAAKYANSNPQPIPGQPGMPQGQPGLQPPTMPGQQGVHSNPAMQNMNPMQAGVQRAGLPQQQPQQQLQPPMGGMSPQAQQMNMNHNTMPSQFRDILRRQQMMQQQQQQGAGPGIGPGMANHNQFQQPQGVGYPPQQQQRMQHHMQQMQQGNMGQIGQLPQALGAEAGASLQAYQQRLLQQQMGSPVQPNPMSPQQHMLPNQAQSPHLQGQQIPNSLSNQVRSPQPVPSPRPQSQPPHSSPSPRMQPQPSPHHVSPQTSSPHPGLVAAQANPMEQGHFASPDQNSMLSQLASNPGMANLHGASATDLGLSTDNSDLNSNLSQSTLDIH

- HAT inhibition: potent p300-specific HAT inhibitor
SMILES: COc1cc(/C=C/C(=O)CC(=O)/C=C/c2ccc(O)c(OC)c2)ccc1O [Curcumin]
